Experimental findings from patent US9034876B2, “Treatment of chronic inflammation with a 1,2,4-triazolo [1,5a] pyridine derivative” (Cephalon, Inc., priority 2010, dated 2015) are described below.

The assay has as its system phospho-STAT3. In words: CAIA model, paw phospho-STAT3 (Luminex bead assay). It counts as in vivo, female DBA/1 mice. As to conditions: Dex 1.5 mg/kg i.p. three times a week (day 6-8).

Method: DBA/1 female mice were injected i.v. with purified anti-collagen type II antibodies, then given 25 μg of LPS i.p. three days later to induce arthritis by day 5. Mice that met the arthritis criteria score of 1 per paw were entered into the study. Compound A was provided orally, b.i.d., for all doses tested; Dex was provided at 1.5 mg/kg three times a week, i.p.; and vehicle (PEG400+1% DMSO) was provided orally.
The graphed data was generated using Luminex® bead kits, concentration in units per ml per 3 mg of total protein as determined by the BSA assay. The graphed data represents mean±SEM, statistics were performed using 2-way ANOVA analysis.
To investigate the effect of Compound A on levels of phosphorylated STATs and cytokines in the paws of treated mice, a method was developed whereby synovial fluid and cellular joint extracts could be obtained from the paws and ankles of diseased animals for analysis using multiplex bead arrays [32]. […] Consequently, multiplex analysis was used as the primary method of measuring phosphorylated STATs for all experiments described herein.
Briefly, the front (including carpus) and back (including tarsus) right paws were collected and frozen in dry-ice cooled isopentane and stored at −80° C. until use. The paws were cut to 2 mm×2 mm segments and kept on dry-ice in round bottom polypropylene tubes. Seven hundred microliters tissue extraction buffer containing protease inhibitor cocktail (Calbiochem, San Diego, Calif.) and Halt phosphatase inhibitor cocktail (Thermo Scientific, Rockford, Ill.) or Roche phosphatase inhibitor cocktail (Roche, Indianapolis, Ind.) in tissue extraction reagent I (Invitrogen, Carlesbad, Calif.) were added to each sample. Samples were homogenized frozen using a PT 10-35 Polytron homogenizer. After homogenization, samples were centrifuged at 4° C. for 2000×g for 10 minutes and supernatants re-centrifuged at 4° C. at maximum speed, 14,000×g, for 15 minutes. Supernatants were carefully removed to avoid picking up the top layer of lipids/adipose debris. Protein concentration was measured using a BCA protein assay (Pierce, Rockford, Ill.) and adjusted to 3 mg/ml. A minimum of 25 μl of this extraction was used in the above described protocol using the mouse cytokine 10-plex bead kit (Invitrogen, Carlsbad, Calif.) or phosphorylated STAT1, 3, 5a/b, 3-plex kit (Invitrogen, Carlsbad, Calif.).

For the compound `C[C@@H]1C[C@H]2[C@@H]3CCC4=CC(=O)C=C[C@]4(C)[C@@]3(F)[C@@H](O)C[C@]2(C)[C@@]1(O)C(=O)CO` [Dex, Dexamethasone, reference compound], the “time post treatment initiation at which the pSTAT3 reduction was reached” value was 48 hours.
